The subject of data set [1] is MDCK II (MDR1) cells. In kind it is in vitro ADME, canine (cells expressing human P-gp). Particulars: 2.4 μmol/L telmisartan.
The test system of data set [2] is P-gp. The note with it: read-out: IC50 as inhibitor of P-gp; ref Weiss et al. [2010]; cited from earlier work.
Data set [3] relates to P-gp activity of the murine cell line P388/dx. Particulars: P388/dx cells; ref Weiss et al. [2010]; cited from earlier work.
Data set [4] relates to MDCK II cells transfected with the human MDR1 gene. The note with it: 5 μmol/L telmisartan, 30 min preincubation; ref Chang et al. ([2006]); cited from earlier work.
For data set [5] the following is noted: cited from earlier work.
Data set [6] has as its system MDCK II (MDR1) cells. Nature of the data set: Bidirectional transepithelial transport across MDCK II.

Consider one compound from PMC4492727 (Pharmacology Research & Perspectives, 2015).

Converted amounts (≈) assume the structure as drawn. Like-named read-outs stand apart in the source and are kept apart here.

In the case of `CCCc1nc2c(C)cc(-c3nc4ccccc4n3C)cc2n1Cc1ccc(-c2ccccc2C(=O)O)cc1` [telmisartan], in data set [1], the “effect on amount of [3H]-digoxin present in cells and filter” value is reported as “no difference”; the “increase in concentration of verapamil in cells compared to untreated control” value is around 26%. Further, in data set [2], the IC50 was 380 nM. Further, in data set [3], the “P-gp inhibitory effect, calcein AM uptake” value is reported as “inhibited”. In addition, the “inhibition of the efflux transport of digoxin” value in data set [4] is “able to inhibit”. The aqueous solubility in data set [5] (ref Park et al. [2013]) is 0.45 µM (≈ 0.232 µg/mL). Besides, the aqueous solubility in data set [5] (ref Tran et al. [2008]) is 0.17 µM (≈ 0.0875 µg/mL). Moreover, in data set [6] (2.4 μmol/L telmisartan), the “effect on transepithelial efflux of [3H]-verapamil” value is “minor inhibition” and the “effect on transepithelial transport of [3H]-digoxin” value was “does not affect”. Moreover, the “effect on verapamil transport in pilot experiments” value in data set [6] (low concentrations of telmisartan, data not shown) is given as “no effects”.
